Read-outs that look alike come from different tables or passages of the source.
How the values were obtained:
M. marinum luxCDABE = type: cell-based, Mycobacterium marinum; conditions: 10 µM
M. marinum GFP = type: cell-based, Mycobacterium marinum; conditions: 10 µM; antibiotic assay
[1] = tested on: M. marinum in A. castellanii; type: cell-based, Mycobacterium marinum; conditions: 10 µM
[2] = tested on: M. marinum in BV2 microglial cells; type: cell-based, Mycobacterium marinum
D. discoideum GFP-ABD = conditions: 10 µM
Mtb H37Rv in THP-1 = tested on: Mtb H37Rv in THP-1; design: method as in Sorrentino et al, 2015; conditions: ref Sorrentino et al, 2015, cited from earlier work; for Extracellular MIC90/ Inracellular MIC90: ratio
Mtb H37Rv = tested on: Mtb H37Rv; design: method as in Sorrentino et al, 2015; conditions: ref Sorrentino et al, 2015; cited from earlier work
[3] = THP1 / Mtb H37Rv infection assay

Compound	M. marinum luxCDABE normalised growth, control = 1.00, mean (M. marinum luxCDABE)	M. marinum luxCDABE normalised growth, control=1.00, mean (M. marinum luxCDABE)	M. marinum GFP normalised growth, control=1.00, mean (M. marinum GFP)	A. castellanii / M. marinum normalised growth, control=1.00, mean [1]	Hits A. castellanii/M. marinum assay True/False [1]	anti-infective properties in A. castellanii infection assay [1]	IC50 [2] [µM]	BV2 / M. marinum normalised growth, control=1.00, mean ([2]; 10 µM)	anti-infective properties in microglial cell (BV2) infection assay ([2]; 10 µM)	hit in BV2/M. marinum assay True/False ([2]; 10 µM)	D. discoideum GFP-ABD normalised growth, control = 1.00, mean (D. discoideum GFP-ABD)	D. discoideum GFP-ABD normalised growth, control=1.00, mean (D. discoideum GFP-ABD)	Intracelullar MIC90 in THP-1 (Mtb H37Rv in THP-1; Mtb H37Rv-infected THP1 cells) [µM]	Intracelullar MIC90 in THP-1 (Mtb H37Rv in THP-1; [3]) [µM]	Extracellular MIC90/ Inracellular MIC90 (Mtb H37Rv in THP-1)	Extracellular MIC90 (Mtb H37Rv) [µM]
O=C(NC(Cc1ccccc1)C(=O)Nc1ccccc1N1CCOCC1)c1cccs1 (centres unmarked) [GSK1055950A]	0,00	0.00	-0.01	0.24	TRUE	strong anti-infective properties	2.84	0.33	strong anti-infective properties	TRUE	1,07	1.07	1.85	1.85	4.11	7.6
Cc1nnc(NCc2cccc(Cl)c2)c2ccccc12 [GSK1302651A]		0.00	0.56	1.01			4.41	0.87				0.97		5.55	1.06	5.9
Cc1ccc(C(=O)Nc2nc(-c3ccccn3)cs2)s1 [GSK1372568A]		0.00	0.69	1.35			5.33	0.95				0.31		50	0.17	8.4
CCn1c(=O)c(=O)[nH]c2cc(C(=O)Nc3ccccc3Nc3ccc(OC)cc3)ccc21 [GSK1385423A]		1.00	0.98	1.07			2.42	0.71				0.39		0.61	13.77	8.4
O=C(c1cc2c(s1)CCC2)N1CCN(Cc2ccc3c(c2)OCO3)CC1 [GSK1731114A]		0.085	0.30	0.92			9.43	0.81				0.44		5.55	0.95	5.3
O=C(C=Cc1cccs1)N1CCN(Cc2ccc(Br)s2)CC1 [GSK1744926A]		0.00	0.13	0.74			4.18	0.70				0.50		1.85	1.03	1.9
CN1CCN(c2ccc(C(F)(F)F)cc2NC(=O)c2ccccn2)CC1 [GSK1750922A]		1.00	0.91	0.93			5.07	0.94				0.29		50	0.04	1.9
CCOc1ccc(-c2nc(CNCCc3ccc(F)cc3)cs2)cc1.O=C(O)C(=O)O [GSK1759150A]		0.37	0.75	0.82			4.31	0.73				0.30		16.65	0.07	1.1
Cl.O=C(c1ccco1)N(CCCn1ccnc1)c1nc2c(Cl)cccc2s1 [GSK1788487A]		0.09	0.66	1.34			4.96	0.94				0.32		50	0.17	8.4
Cn1ccnc1CNCCS(=O)(=O)c1cccc(Nc2ccc(-c3cccc(F)c3)cn2)c1 [GSK1826247A]		0.00	0.98	1.14			7.73	0.98				0.90		0.61	7.7	4.7
O=C(NCc1ccc2c(c1)OCO2)c1c(C(F)(F)F)nc2ccccn12 [GSK1829671A]	0,00	0.00	0.06	0.66	FALSE		7.47	0.49		TRUE	1,21	1.21	16.65	16.65	0.2	3.3
O=C(NCc1ccc(Oc2ccccc2)cc1)c1c(C(F)(F)F)nc2ccccn12 [GSK1829676A]	0,00	0.00	0.0321	0.56	FALSE			0.35		TRUE		0.75	0.21	0.21	0.95	0.2
Cc1ccc2nc(C(F)(F)F)c(C(=O)NCc3ccc(C)o3)n2c1 [GSK1829728A]	0,00	0.00	0.10	0.78	FALSE		4.03	0.43		TRUE	1,01	1.01	1.85	1.85	1.84	3.4
Cc1ccc2nc(C(F)(F)F)c(C(=O)NCc3cccs3)n2c1 [GSK1829729A]	0,00	0.00	0.0432	0.52	FALSE		0.08	0.48		TRUE		0.86	0.61	0.61	1.47	0.9
Cc1ccc2nc(C(F)(F)F)c(C(=O)NCc3ccc4c(c3)OCO4)n2c1 [GSK1829732A]	0,00	0.00	0.06	0.56	FALSE		3.52	0.34		TRUE	1,00	1.00	1.85	1.85	0.59	1.1
Cc1ccc2nc(C(F)(F)F)c(C(=O)NCc3cccc(OC(C)C)c3)n2c1 [GSK1829733A]		0.00	0.09	0.68			3.35	0.69				1.05		1.85	1.13	2.1

From publication PMC5834492, “Antimycobacterial drug discovery using Mycobacteria-infected amoebae identifies anti-infectives and new molecular targets” (Scientific Reports, 2018)
